Consider eleven compounds from patent US9133206B2, “Benzodiazepine and pyridodiazepine derivatives” (AbbVie Inc., priority 2010, dated 2015).

Each structure is given as a SMILES string.

Assay [1] has as its system mouse model of multiple sclerosis. The following applies: in vivo administration; cited from earlier work.
In assay [2] the test system is patients with mild-to-moderate Alzheimer's disease. The following applies: 20 mg three times a day (60 mg/day); cited from earlier work.
The test system of assay [3] is SK-N-SH human neuroblastoma cells. In words: Serum Deprivation/JC-1 Mitochondrial Membrane Potential (MMP) Assay. The assay is classed as cell-based. Conditions: for EC50: serum deprivation ~18 hours, JC-1 ratio normalized to peak value for 10 μM dimebolin, single curve fit to mean data of n=2-3; for Emax: read-out: JC-1 max %; for activation at 3 µM: single dose 3 μM, JC-1 ratio normalized to peak value for 10 μM dimebolin (n=2-4), read-out: JC-1 max % (@ 3 μM). In short, it runs like this: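 SK-N-SH cells serum-deprived ~18 h with compound, then stained with JC-1 for 40 min at 37 °C; red (560/595 nm) to green (485/535 nm) ratio reports membrane potential. Response normalized to peak from 10 μM dimebolin; EC50 from fit to mean of n=2–3, or single-dose 3 μM; DMSO ≤1%.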

The mark [4] stands for this setting: Homo sapiens, SK-N-SH, percent maximal intensity in JC-1 ratio normalized to peak value for 10 μM dimebolin, serum deprivation.
Where [5] appears, read: Homo sapiens, serum deprivation.

Consider `O=C1C=C(c2ccccc2)C(=O)N1c1cccc(Cl)c1` [1-(3-chlorophenyl)-3-phenyl-pyrrole-2,5-dione], for which, in assay [1], the “development of the disease” value is given as “significantly prevented the development of the disease”. In the case of `Cc1ccc2c(c1)c1c(n2CCc2ccc(C)nc2)CCN(C)C1` [dimebolin], the “clinical course of disease (ADAS-Cog, improvement over baseline)” value in assay [2] is reported as “significant improvement in the clinical course of disease”. Regarding `CC(C)(C)OC(=O)N1CCN2c3ccccc3CNC(=O)C2C1` (stereo not drawn) [Example 1, tert-butyl 5-oxo-1,2,4a,5,6,7-hexahydropyrazino[1,2-a][1,4]benzodiazepine-3(4H)-carboxylate], the EC50 in assay [3] (Homo sapiens, SK-N-SH, 18 h) stood at 9.59 µM. The Emax in assay [3] (setting [4]) turned out to be 88%. In the same order, the values of `Cc1ccc(CN2Cc3ccccc3N3CCN(Cc4ccccc4)CC3C2)s1` (stereo not drawn) [Example 122, 3-benzyl-6-[(5-methyl-2-thienyl)methyl]-1,2,3,4,4a,5,6,7-octahydropyrazino[1,2-a][1,4]benzodiazepine] are 3.4 µM and 133%. In the case of `O=C(NCc1ccccn1)N1Cc2ccccc2N2CCN(Cc3ccccc3)CC2C1` (stereo not drawn) [Example 168, 3-benzyl-N-(pyridin-2-ylmethyl)-1,2,3,4,4a,5-hexahydropyrazino[1,2-a][1,4]benzodiazepine-6(7H)-carboxamide], the activation at 3 µM in assay [3] (setting [5]) amounted to 259%. On to `Brc1ccc(CN2Cc3ccccc3N3CCN(Cc4ccccc4)CC3C2)cc1` (stereo not drawn) [Example 123, 3-benzyl-6-(4-bromobenzyl)-1,2,3,4,4a,5,6,7-octahydropyrazino[1,2-a][1,4]benzodiazepine], for which the JC-1 max % in assay [3] (percent maximal intensity in JC-1 ratio normalized to peak value for 10 μM dimebolin, serum deprivation) is 186%. Besides, the EC50 in assay [3] is 3.44 µM.

For the compound `O=C(N1CCOCC1)N1Cc2ccccc2N2CCN(c3ncccn3)CC2C1` (stereo not drawn) [Example 80, morpholin-4-yl[3-(pyrimidin-2-yl)-1,2,3,4,4a,5-hexahydropyrazino[1,2-a][1,4]benzodiazepin-6(7H)-yl]methanone], the concentration for a half-maximal effect (EC50) in assay [3] (Homo sapiens, SK-N-SH, 18 h) was 11.9 µM. Further, in assay [3] (setting [4]), the Emax is 97%.

`CCCCN1Cc2ccccc2N2CCN(Cc3ccccc3)CC2C1` (stereo not drawn) [Example 129, 3-benzyl-6-butyl-1,2,3,4,4a,5,6,7-octahydropyrazino[1,2-a][1,4]benzodiazepine]: in assay [3] (setting [5]), the activation at 3 µM came out at 40%. As for `Fc1ccc(CN2CCN3c4ccccc4CN(Cc4ccc(Br)cc4)C[C@H]3C2)cc1` (single isomer, unassigned) [Example 61], the EC50 in assay [3] (Homo sapiens, SK-N-SH, 18 h) came out at 2.57 µM. Further, in assay [3] (setting [4]), the Emax was determined as 213%. In the same order, the values of `N#Cc1cccc(CN2Cc3ccccc3N3CCN(Cc4ccccc4)CC3C2)c1` (stereo not drawn) [Example 146, 3-[(3-benzyl-1,2,3,4,4a,5-hexahydropyrazino[1,2-a][1,4]benzodiazepin-6(7H)-yl)methyl]benzonitrile] are 2.2 µM and 182%. Turning to `Clc1ccc(CN2Cc3ccccc3N3CCN(Cc4ccccc4)CC3C2)cc1` (stereo not drawn) [Example 130, 3-benzyl-6-(4-chlorobenzyl)-1,2,3,4,4a,5,6,7-octahydropyrazino[1,2-a][1,4]benzodiazepine], the EC50 in assay [3] (Homo sapiens, SK-N-SH, 18 h) turned out to be 4 µM. Further, the Emax in assay [3] (setting [4]) is 181%.
